Assay results as given in patent US8962244B2, “Compounds for modulating RNA binding proteins and uses therefor” (University of Massachusetts, priority 2009, dated 2015).
Where two headings read alike, the source gives them in different places.

Assays:
MEX-5 = molecular target: T1, MEX-5 (Caenorhabditis elegans, UniProt Q9XUB2); assay: Fluorescence polarization screening of MEX-5 binding to fluorescein-labeled TCR2 RNA; conditions: read-out: MEX-5 score
T1 construct: The fragment of mex-5 containing the TZF domain (amino acids 236-350) was amplified; made in house; host or cells: Escherichia coli JM109
T1 sequence (Q9XUB2 236-350): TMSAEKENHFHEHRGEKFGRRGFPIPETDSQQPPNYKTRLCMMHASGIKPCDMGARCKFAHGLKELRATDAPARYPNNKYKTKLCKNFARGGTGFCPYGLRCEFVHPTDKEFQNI
Source text: The expression and purification of recombinant MEX-5 protein has previously been described in Pagano, J. M., Farley, B. M., McCoig, L. M. and Ryder, S. P. (2007) “Molecular basis of RNA recognition by the embryonic polarity determinant MEX-5;” J Biol Chem; 282, 8883-8894. The fragment of mex-5 containing the TZF domain (amino acids 236-350) was amplified from a commercially available ORFeome clone (Open Biosystems) and sub-cloned into the vector pMal-c (NEB), which encodes maltose binding protein as an N-terminal fusion. This construct is termed pMal-MEX-5 (236-350).
MEX-5 is expressed in Escherchia. coli JM109 liquid cultures grown at 37° C. Cultures were induced during mid log phase by the addition of 0.1 mM isopropyl 1-thio-β-D-galactopyranoside (IPTG) and allowed to grow for three hours. An amount of 100 μM zinc acetate (final concentration) was added at the time of induction. The pelleted cells were resuspended in lysis buffer (50 mM Tris pH 8.8, 200 mM NaCl, 2 mM DTT, EDTA free protease inhibitor tablet (Roche), 100 μM Zn(OAc)2) and lysed by sonication. The soluble protein was purified in three steps using standard chromatography methods: (1) amylose affinity (NEB), (2) Hi-TRAP-Q (GE Healthcare), and (3) Hi-TRAP-S (GE Healthcare). The Q buffer was composed of 50 mM Tris, pH 8.8, 20 mM-1500 mM NaCl, 2 mM DTT, and 100 μM Zn(OAc)2. The S buffer was composed of 50 mM MOPS, pH 6.0, 20 mM-1500 mM NaCl, 2 mM DTT, 100 μM Zn(OAc)2. The pure fractions, determined by coomassie-stained SDS-PAGE, were dialyzed into storage buffer (20 mM Tris, pH 8.0, 25 mM NaCl, 100 μM Zn(OAc)2, 2 mM DTT). The protein concentration was determined by measuring absorbance at 280 nm and the calculated extinction coefficient. The protein was stored at 50 μM concentration at 4° C.
All RNA oligonucleotides were chemically synthesized by Dharmacon or Integrated DNA Technologies. Upon arrival, each RNA was deprotected and stored according to the manufacturer's instructions. Prior to use, the RNA was resuspended in 10 mM Tris-HCl, pH 8.0, 0.1 mM EDTA, and the concentration determined by UV spectrophotometry using the calculated extinction coefficient at 260 nm based on the specific sequence. The sequence of the MEX-5 binding RNA (TCR2) is […] (SEQ ID NO:1). The POS-1 binding RNA (BMF018) is […] (SEQ ID NO:2). The MEX-3 binding RNA (SEQ 14) is […] (SEQ ID NO:3).
The RNA used for the small molecule screen was labeled at the 3′-end with fluorescein by Dharmacon during synthesis. In a few cases, follow up experiments were performed with post-synthetically labeled RNA. In this case, fluorescein 5-thiosemicarbazide (FTSC, Invitrogen) was used to 3′-end label each RNA after treatment with sodium periodate (see Reines, S. A. and Cantor, C. R. (1974) “New fluorescent hydrazide reagents for the oxidized 3′-terminus of RNA” Nucleic Acids Res. 1, 767-786). A representative 50 μl reaction consisted of 0.5 nanomoles RNA, 100 mM NaOAc, pH 5.1, and 5 nanomoles NaIO4. After the reaction was complete (90 minutes at room temperature), the sample was ethanol precipitated by adding 1 μl RNase free glycogen (Invitrogen 20 μg/μl), 1/20th volume of 5 M NaCl, and 2 volumes of 100% ice-cold ethanol. The resulting pellet was resuspended in 50 μl of 100 mM NaOAc, pH 5.1 containing 1 mM FTSC and was allowed to react overnight at 4° C. in the dark. The unreacted label was removed by ethanol precipitation with resuspension of the pellet in a small volume of TE, and purification over a Roche G-25 size exclusion spin column. The labeling efficiency is determined by calculating the ratio of fluorescein absorbance at 490 nm to RNA-fluorescein absorbance at 260 nm. Typical efficiencies are 60-80%.
The ability of MEX-5 to associate with RNA was monitored by fluorescence polarization using a victor V3 or victor V2V plate reader (Perkin Elmer) in 384-well FluoTrak microplates (Grenier). […]

POS-1 = molecular target: T2, POS-1 (Caenorhabditis elegans, UniProt G5EF15); assay: Fluorescence polarization screening of POS-1 binding to fluorescein-labeled BMF018 RNA; conditions: read-out: POS-1 score
T2 construct: 6-his tag (N); made in house; host or cells: E. coli BL21 (DE3) Gold
T2 sequence (G5EF15 80-180): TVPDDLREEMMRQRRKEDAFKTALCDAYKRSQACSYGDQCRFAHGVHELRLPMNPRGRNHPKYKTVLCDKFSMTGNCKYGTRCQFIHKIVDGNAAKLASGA

[1] = 192 μM test compound, score = polarization relative to no-drug and no-protein controls, 0.25 = 75% inhibition, lowest score = greatest inhibition

Compound | remaining activity at 192 µM (POS-1; [1]) | further results
O=S(=O)(Nc1nc(-c2ccccc2)c(-c2ccccc2)o1)c1ccc(Cl)cc1 [CO] | 16% | remaining activity at 192 µM (MEX-5; [1]): 24.1%
O=[N+]([O-])c1ccc(NS(=O)(=O)c2ccccc2)c(NS(=O)(=O)c2ccccc2)c1 [AQ] | 11.6% | remaining activity at 192 µM (MEX-5; [1]): 12.4%
O=C(O)C1CCC(N2C(=O)c3c(Cl)c(Cl)c(Cl)c(Cl)c3C2=O)CC1 (stereo not drawn) [AO] | 6.81% | remaining activity at 192 µM (MEX-5; [1]): 10.6%
O=S(=O)(Nc1ccc(Cl)cc1O)c1ccccc1 [D] | -3.79% | remaining activity at 192 µM (MEX-5; [1]): -1.58%
CCc1nnc(NS(=O)(=O)c2ccc(NC(=O)c3cc4cc(OC)ccc4oc3=O)cc2)s1 [BU] | 18.1% | remaining activity at 192 µM (MEX-5; [1]): 20.8%
CC1(C)Cc2ccccc2-c2[nH]c3nnc(S)n3c(=O)c21 [O] | 4.77% | remaining activity at 192 µM (MEX-5; [1]): 2.3%
Oc1ccc(-c2csc(Nc3cccc4ccccc34)n2)cc1O [AY] | 18% | remaining activity at 192 µM (MEX-5; [1]): 14.1%
CCOc1cc(C(NC(C)=O)c2cc([N+](=O)[O-])c3cccnc3c2O)ccc1O (stereo not drawn) [AL] | 12.3% | remaining activity at 192 µM (MEX-5; [1]): 10.4%
COc1ccc(NC(=S)c2nc3ccccc3[nH]2)cc1 [T] | 8.99% | remaining activity at 192 µM (MEX-5; [1]): 5.51%
O=S(=O)(Nc1ccc(O)c(NS(=O)(=O)c2ccccc2)c1)c1ccccc1 [F] | -2.79% | remaining activity at 192 µM (MEX-5; [1]): -0.711%
Cc1ccc(O)c(NS(=O)(=O)c2ccc([N+](=O)[O-])cc2)c1 [CD] | 12.4% | remaining activity at 192 µM (MEX-5; [1]): 22.6%
CCCCN1C(=O)/C(=c2\sc3nc(-c4ccccc4OC(C)=O)nn3c2=O)c2ccccc21 [M] | 11.7% | remaining activity at 192 µM (MEX-5; [1]): 1.62%
O=C(O)CCn1cc(C=C2C(=O)NC(=S)NC2=O)c(-c2cc3ccccc3oc2=O)n1 [BA] |  | remaining activity at 192 µM (MEX-5): 15.2%; remaining activity at 192 µM (POS-1): 22.2%
COc1ccc(C(=O)NC(=S)Nc2ccc(C(=O)O)c(Cl)c2)cc1[N+](=O)[O-] [BF] | 9.05% | remaining activity at 192 µM (MEX-5; [1]): 16.7%
Cc1ccc(NS(=O)(=O)c2ccc(F)cc2)c(NS(=O)(=O)c2ccc(F)cc2)c1 [DS] | 17.7% | 
Cc1c(C(=O)NC(=S)Nc2cc(C(=O)O)ccc2Cl)cccc1[N+](=O)[O-] [ER] | 26.2% | 
CCCCC(=O)NC(c1ccccc1Cl)c1cc([N+](=O)[O-])c2cccnc2c1O (stereo not drawn) [ET] | 26.5% | 
O=S(=O)(NCc1nc2ccccc2[nH]1)c1ccc(Cl)cc1 [EC] | 21.7% | 
CC1=NN(c2ccc(Cl)c(C(=O)O)c2)C(=O)/C1=C/c1cccc(OC(=O)c2cccs2)c1 [DB] | 6.9% | 
CCOc1cc(/C=C2\C(=O)N(c3ccc(C(=O)O)cc3)N=C2C)ccc1OC(=O)c1cccs1 [EE] | 22.5% | 
COc1cc(/C=C2/C(=O)N(c3ccc(Cl)c(C(=O)O)c3)N=C2C)ccc1OC(=O)c1cccs1 [DF] | 10.1% | 
O=C1NN(c2ccc(Cl)c(Cl)c2)C(=O)/C1=C/c1cccc(OC(=O)c2cccs2)c1 [EG] | 22.9% | 
Cc1ccc(CC(=O)Nc2ccc(S(=O)(=O)Nc3nccs3)cc2)cc1 [EK] | 23.7% | 
O=S(=O)(Nc1ccc(S(=O)(=O)Nc2nccs2)cc1)c1ccc(Br)cc1 [CZ] | 4.89% | 
O=C(O)c1ccc(NC(=S)NC(=O)c2sc3ccccc3c2Cl)cc1 [CY] | 4.35% | 
O=C1NN(c2ccc(F)c(Cl)c2)C(=O)/C1=C\c1cccc(OC(=O)c2cccs2)c1 [CX] | 4.3% | 

Compound | remaining activity at 192 µM (POS-1; [1]) | further results
CCOc1ccc(C(=O)NC(=S)Nc2ccc(C(=O)O)c(Cl)c2)cc1Br [DK] | 14.3% | 
O=C(Nc1cc(NC(=O)c2ccccc2)cc(C(=O)Nc2ccc(O)cc2C(=O)O)c1)c1ccccc1 [DQ] | 17.2% | 
CCOC(=O)c1ccc(N2NC(=O)/C(=C/c3ccc(OC(=O)c4ccco4)c(OC)c3)C2=O)cc1 [DR] | 17.2% | 
Cc1ccc(S(=O)(=O)NCc2nc3ccccc3[nH]2)cc1 [DY] | 20% | 
NC(=O)c1ccccc1NC(=O)CN(c1cccc(Br)c1)S(=O)(=O)c1ccccc1 [DC] | 7.5% | 
O=C(NC1CCCCCC1)c1ccc(I)cc1 [CW] | 3.98% | 
COc1ccc(S(=O)(=O)Nc2ccc(C)cc2NS(=O)(=O)c2ccc(OC)cc2)cc1 [DI] | 11.9% | 
COc1cc(-c2n[nH]c(=S)[nH]2)cc(OC)c1OC [DU] | 18% | 
CCCCOc1cccc(C(=O)Nc2ccc(S(=O)(=O)Nc3nnc(CC)s3)cc2)c1 [EP] | 26% | 
O=C(NC(=S)Nc1ccccc1C(=O)O)c1cc(I)ccc1Cl [DV] | 18.5% | 
CC(=O)Nc1nc2ccc(S(=O)(=O)NC(C)=O)cc2s1 [ED] | 22% | 
COc1c(Cl)cc(Cl)cc1C(=O)NC(=S)Nc1ccc(C(=O)O)cc1 [EQ] | 26% | 
COc1ccc(N2CC(C(=O)Nc3ccc(S(=O)(=O)Nc4nccs4)cc3)CC2=O)cc1 (stereo not drawn) [DA] | 6.51% | 
CCOC(=O)C1=C(C)Nc2[nH]c(=O)[nH]c(=O)c2C1c1ccccc1[N+](=O)[O-] (stereo not drawn) [EF] | 22.8% | 
CCc1nnc(NS(=O)(=O)c2ccc(NCc3cc(Cl)cc(Cl)c3O)cc2)s1 [DH] | 11.9% | 
CC(C)(C)c1ccc(C(=O)Nc2ccc(S(=O)(=O)Nc3nccs3)cc2)cc1Br [EV] | 27.5% | 
COC(=O)c1c(NC(=O)CCC(=O)O)sc2c1CCC(C(C)(C)C)C2 (stereo not drawn) [DM] | 14.4% | 
O=C(NC(=S)Nc1ccc(Cl)c(C(=O)O)c1)c1ccc(-c2ccccc2)cc1 [EH] | 23% | 
Oc1ccccc1-c1n[nH]c(=S)n1Cc1ccccc1 [ES] | 26.5% | 
O=C(O)c1cccc(NC(=S)NC(=O)c2ccc(-c3ccc(Cl)cc3)o2)c1 [EI] | 23% | 
O=C(NC(=S)Nc1ccccc1C(=O)O)c1ccc(-c2ccc(Cl)cc2)o1 [EO] | 25.4% | 
O=C(O)c1ccc(Cl)c(NC(=S)NC(=O)c2cc(I)ccc2Cl)c1 [EJ] | 23.4% | 
CC1=NN(c2ccc(S(N)(=O)=O)cc2)C(=O)/C1=C\c1ccc(OC(=O)c2cccs2)cc1 [DN] | 16.7% | 
Sc1nnc(-c2cc(-c3ccccc3)nc3ccccc23)o1 [EM] | 24.2% | 
Cc1cc(OCC(=O)Nc2ccc(S(=O)(=O)Nc3nccs3)cc2)ccc1Br [DT] | 17.7% | 
C#CCSc1nc2sc3c(c2c(=O)n1C)CCC3 [EB] | 21% | 
